Where “and” joins values, the source holds several entries; their conditions need not be identical. Equal values may be shown once. Read-outs that look alike come from different tables or passages of the source.

Assay [1] has as its system healthy volunteers. The method, then:
(§1) These studies were approved by the Human Research Committee at the Massachusetts General Hospital. All subjects provided informed consent and were American Society of Anesthesiology Physical Status I with Mallampati Class I airway anatomy. […] We administered a urine pregnancy test for each female subject to confirm that they were not pregnant. Before the start of the study, we required subjects to take nothing by mouth for at least 8 hours. […] We maintained each target effect-site concentration level for 14 min. […] Volunteers were instructed to close their eyes throughout the study to avoid eye-blink artifacts in the electroencephalogram. Volunteers were presented with auditory stimuli during the study and asked to respond by button presses to assess the level of conscious behavior. […] Verbal stimuli consisted either of the subject's name or a word randomized with an equal number of name or word stimuli at each level. The click train was delivered binaurally, with 40-Hz clicks in the left ear and 84-Hz clicks in the right ear. Subjects were instructed to press one button if they heard their name and to press the other button if they heard any other stimulus. Stimuli were recorded at a sampling rate of 44.1 kHz and were presented using Presentation software (Neurobehavioral Systems, Inc., Berkeley, Calif.) with ear-insert headphones (ER2; Etymotic Research, Elk Grove Village, Ill.) at ˜81 decibels peak sound pressure level. Button-press stimuli were recorded using a custom-built computer mouse with straps fitted to hold the first and second fingers in place over the mouse buttons. The mouse was also lightly strapped to the subject's hand using tape and an arterial line board to ensure that responses could be recorded accurately.
(§2) An anti-aliasing filter was applied and the EEG data was downsampled to 250 Hz before analysis. EEG signals were re-montaged to a nearest-neighbor Laplacian reference, using distances along the scalp surface to weigh neighboring electrode contributions.
(§3) First, 2-minute EEG segments were selected from all subjects during the awake, eyes closed baseline. Eye closure facilitates distinguishing between normal awake, eyes-closed occipital alpha oscillations and the frontal alpha oscillations associated with anesthesia induced altered arousal.
(§4) Electroencephalogram data segments were selected based on the behavioral response.
(§5) For each volunteer subject, TM electroencephalogram epochs were chosen that occurred within the first 2-minutes of the onset of this pattern. […] For each volunteer subject, PM electroencephalogram epochs were chosen that occurred within the first 2-minutes of the onset of this pattern.
The coherence quantifies the degree of correlation between two signals at a given frequency. […] The coherence Cxy(f) function between two signals x and y is defined as:
[formula] where Sxy(f) is the cross-spectrum between the signals x(t) and y(t), Sxx(f) is the power spectrum of the signal x(t) and Syy(f) is the power spectrum of the signal y(t). Similar to the spectrum and spectrogram, the coherence can be estimated as a time-varying quantity called the coherogram.

Assay [2] deals with healthy volunteers. As for the experimental part:
as §1, §4, §5
The source holds these as a separate data set.

The subject of assay [3] is healthy volunteers. As for the experimental part:
as §1, §2, §3, §4, §5
The power spectral density, also referred to as the power spectrum or spectrum, quantifies the frequency distribution of energy or power within a signal. The spectrogram is a time-varying version of the spectrum. […] In these spectrograms, frequencies are arranged along the y-axis, and time along the x-axis, and power is indicated by color on a decibel (dB) scale. […] Spectra and spectrograms were computed using the multitaper method, implemented in the Chronux toolbox.
Group-level spectrograms were computed by taking the median across volunteers.
This is another data set of the same source.

In assay [4] the test system is patients undergoing light sedation with dexmedetomidine, sedation with propofol and general anesthesia with propofol. The following applies: intraoperative frontal EEG.
Assay [5] concerns patients undergoing general anesthesia. Briefly: Intra-operative EEG during general anesthesia with sevoflurane as primary maintenance agent. It is filed as in vivo, human. The method, then: In addition, to study the relationship between EEG dynamics in context of potential neural circuit mechanisms of an anesthetic vapor, intra-operative EEG were recorded from patients undergoing general anesthesia with sevoflurane as the primary maintenance agent, which is an ether derivative commonly used to maintain GA. […] Connectivity analysis was then performed on the EEG dynamics postulated to be involved in anesthesia-induce depression in consciousness. […] These observed similarities are consistent with present understanding of how EEG features relate to anesthesia-induced depression of consciousness, and provide a framework for further experimental studies on the neural circuit mechanisms of general anesthesia.

Assay [6] can be described thus: Plethysmography and blood gas experiments. The following applies: in vivo. The text has this:
For example, in accordance with one aspect of the present disclosure, methylphenidate (MPH) can be used as an inhibitor of dopamine and norepinephrine reuptake transporters and actively induces emergence from isoflurane general anesthesia. MPH can be used to restore consciousness, induce electroencephalogram changes consistent with arousal, and increase respiratory drive. The behavioral and respiratory effects induced by methylphenidate can be inhibited by droperidol, supporting the evidence that methylphenidate induces arousal by activating a dopaminergic arousal pathway.

Setting [7] is: propofol-induced unconsciousness (PM).
[8] abbreviates: propofol-induced unconsciousness (TM).
Where [9] appears, read: Propofol-induced unconsciousness (PM) epoch.
Where [10] appears, read: Propofol-induced unconsciousness (TM) epoch.
The mark [11] stands for this setting: dexmedetomidine-induced unconsciousness.

Turning to `CC(C)c1cccc(C(C)C)c1O` [propofol], in the assay on healthy volunteers [1] (setting [7]), the “alpha oscillation coherence peak frequency” value is reported as 10.8 Hz, the “alpha oscillation peak coherence” value is listed as 0.89±0.05 and the “slow oscillation coherence compared to baseline” value was “non-significant decrease”. Moreover, the “frequency range of decrease in coherence on coherogram” value with healthy volunteers [1] (propofol-induced unconsciousness (PM), FIG. 13C) was 0.1-1 Hz. The “frequency range of significant increase in coherence vs baseline” value in the assay on healthy volunteers [1] (propofol-induced unconsciousness (PM), FIG. 13E, P<0.0003, TGTC) is on record as 3.9-15.1 Hz. Besides, in the assay with healthy volunteers [1] (propofol-induced unconsciousness (PM), listed as Propofol), the “alpha oscillation coherence peak frequency” value was roughly 10 Hz. In the assay with healthy volunteers [1] (setting [8]), the “broad frequency range of increase in coherence on coherogram” value is 1-25 Hz. Besides, in the assay on healthy volunteers [1] (propofol-induced unconsciousness (TM) vs dexmedetomidine, FIG. 15A, P<0.0005, TGTC), the “frequency range where coherence was larger than dexmedetomidine-induced unconsciousness” value is recorded as 17.3-25.9 Hz. For the same compound, the “frequency ranges where oscillations were coherent vs baseline” value in the assay on healthy volunteers [1] (propofol-induced unconsciousness (TM), FIG. 13D, P<0.0003, TGTC) was 10.7-15.4 Hz and 17.3-25.9 Hz. Moreover, in the assay on healthy volunteers [2] (setting [9]), the “Behavioral State” value is given as “General” and the “Probability of Response to Verbal Stimuli (%) mean (±SD)” value was 0%. Besides, in the assay with healthy volunteers [2] (setting [10]), the “Behavioral State” value is “Sedation” and the “Probability of Response to Verbal Stimuli (%) mean (±SD)” value is reported as 91.5 (15.4) %. Also, the “propofol effect site concentrations over which the signature is stably maintained” value with healthy volunteers [3] (PM pattern) lay in the range of 3 to 5 µg/mL. In addition, the “frequency range where PM oscillations were significantly larger than TM” value with healthy volunteers [3] (propofol PM vs TM, FIG. 10F, P<0.0003, TGTS) is recorded as 0.1-13.4 Hz. In addition, in the assay on healthy volunteers [3] (setting [7]), the “alpha oscillation peak frequency (EEG power)” value is listed as 10.8 Hz, the “frontal alpha oscillation peak power” value came out at 1.1 dB and the slow oscillation power came out at 13.2 dB. Moreover, the “amplitude of slow oscillations, PM relative to TM and the baseline state” value in the assay with healthy volunteers [3] (propofol-induced unconsciousness (PM) vs (TM)) is on record as “approximately 6 fold”. In addition, the “amplitude of alpha oscillations, propofol PM relative to dexmedetomidine spindle oscillations” value with healthy volunteers [3] (propofol-induced unconsciousness (PM) vs dexmedetomidine) is given as “approximately 3.9 fold”. Moreover, the “frequency range where EEG power was significantly larger than dexmedetomidine-induced unconsciousness” value in the assay with healthy volunteers [3] (propofol-induced unconsciousness (PM) vs dexmedetomidine, P<0.0005, TGTS) is 0.1-40 Hz. In the assay on healthy volunteers [3] (propofol-induced unconsciousness (PM), FIG. 10E, P<0.0003, TGTS), the “frequency range where EEG power was significantly larger than baseline” value was 0.1-40 Hz. In the assay with healthy volunteers [3] (setting [8]), the “broad-band frequency range of increased power in spectrogram” value is listed as 1-25 Hz and the slow oscillation power is on record as −2.5 dB. Moreover, the “frequency range where EEG power was larger than dexmedetomidine-induced unconsciousness” value in the assay on healthy volunteers [3] (propofol-induced unconsciousness (TM) vs dexmedetomidine, P<0.0005, TGTS) was 14.9-40 Hz. Further, the “propofol effect site concentrations over which the signature is stably maintained” value with healthy volunteers [3] (trough max (TM) pattern) lay in the range of 1 to 2 µg/mL. Moreover, in the assay with healthy volunteers [3] (trough-max pattern), the “time after loss of consciousness to which the trough-max pattern extends” value is recorded as roughly 10 min and the “time before loss of consciousness at which the trough-max pattern begins” value is given as roughly 20 min.
In the case of `Cc1cccc([C@H](C)c2cnc[nH]2)c1C` [dexmedetomidine], in the assay on healthy volunteers [1] (setting [11]), the “coherence peak frequency (dex-spindle)” value is 13.4 Hz and ~13 Hz; the “peak coherence (dex-spindle)” value was 0.78±0.08; the “slow oscillation coherence compared to the awake-state” value is given as “non-significant decrease”. Besides, the “frequency range where coherence was significantly larger than propofol-induced unconsciousness (PM)” value with healthy volunteers [1] (dexmedetomidine-induced unconsciousness vs propofol PM, FIG. 15B, P<0.0005, TGTC) was 12.9-15.4 Hz. In addition, the “frequency range of decrease in coherence on coherogram” value in the assay with healthy volunteers [1] (dexmedetomidine-induced unconsciousness, FIG. 12B) is 0.1-1 Hz. Besides, the “frequency range of significant differences in coherence vs baseline” value with healthy volunteers [1] (dexmedetomidine-induced unconsciousness, FIG. 12C, P<0.001, TGTC) was 2.4-18.8 Hz. In the assay on healthy volunteers [1] (dexmedetomidine-induced unconsciousness, FIGS. 12A, 12B), the “frequency range of increase in coherence on coherogram” value was 1-15 Hz. Besides, in assay [4], the “coherence of 0.1-1 Hz slow oscillations compared to propofol slow oscillations” value was “greater coherence” and the “coherence of 8-12 Hz oscillations compared to propofol induced oscillations” value is “less coherence”. Also, the “Behavioral State” value with healthy volunteers [2] (Dexmedetomidine-induced unconsciousness epoch) was “Sedation”. In the assay with healthy volunteers [3] (setting [11]), this compound had a slow oscillation power of −0.4 dB. Further, in the assay with healthy volunteers [3] (dexmedetomidine-induced unconsciousness vs propofol TM, P<0.0005, TGTS), the “frequency range where EEG power was larger than propofol-induced unconsciousness (TM)” value is listed as 0.7-10 Hz. In addition, in the assay on healthy volunteers [3] (dexmedetomidine-induced unconsciousness, FIGS. 9A, 9B), the “frequency range of increased power in spectrogram compared to baseline” value was 2-15 Hz. For the same compound, in the assay on healthy volunteers [3] (dexmedetomidine-induced unconsciousness, beta/gamma, P<0.001, TGTS), the “frequency range where EEG power was lower than baseline” value was 21.2-40 Hz. For the same compound, the “dex-spindle oscillation peak frequency (EEG power)” value in the assay with healthy volunteers [3] (dexmedetomidine-induced unconsciousness, mean±std) was 12.9 Hz and ~13 Hz.
As for `FCOC(C(F)(F)F)C(F)(F)F` [sevoflurane], in assay [5], the “macroscopic EEG dynamics during GA induced unconsciousness” value is given as “closely resemble those of propofol”.
For `COC(=O)C(c1ccccc1)C1CCCCN1` (stereo not drawn) [methylphenidate], in assay [6], the minute ventilation result is “increases minute ventilation”.

Source of the values: patent publication US11786132B2, “Systems and methods for predicting arousal to consciousness during general anesthesia and sedation” (The General Hospital Corporation, priority 2011, dated 2023).
